Experimental data reported in patent US11547697B2, “Heterocyclic compounds and uses thereof” (MILLENNIUM PHARMACEUTICALS, INC., priority 2009, dated 2023).
pIC50: −log10 of the molar value. Where two headings read alike, the source gives them in different places.

How the values were obtained:
Format in all cases: biochemical
[1] = target: p110δ/p85α (Homo sapiens (Human), UniProt O00329); assay: PI 3-Kinase (human) HTRF assay, p110δ/p85α
[2] = target: p110β/p85α (Homo sapiens (Human), UniProt P42338); assay: PI 3-Kinase (human) HTRF assay, p110β/p85α
[3] = target: p110γ (Homo sapiens (Human), UniProt P48736); assay: PI 3-Kinase (human) HTRF assay, p110γ
[4] = target: p110α/p85α (Homo sapiens (Human), UniProt P42336); assay: PI 3-Kinase (human) HTRF assay, p110α/p85α
[5] = in vitro, read-out: PI3K δ IC50
[6] = in vitro, read-out: PI3K γ IC50
[7] = in vitro, read-out: PI3K α IC50
[8] = in vitro, read-out: PI3K β IC50

p110δ/p85α, sequence (O00329 whole entry): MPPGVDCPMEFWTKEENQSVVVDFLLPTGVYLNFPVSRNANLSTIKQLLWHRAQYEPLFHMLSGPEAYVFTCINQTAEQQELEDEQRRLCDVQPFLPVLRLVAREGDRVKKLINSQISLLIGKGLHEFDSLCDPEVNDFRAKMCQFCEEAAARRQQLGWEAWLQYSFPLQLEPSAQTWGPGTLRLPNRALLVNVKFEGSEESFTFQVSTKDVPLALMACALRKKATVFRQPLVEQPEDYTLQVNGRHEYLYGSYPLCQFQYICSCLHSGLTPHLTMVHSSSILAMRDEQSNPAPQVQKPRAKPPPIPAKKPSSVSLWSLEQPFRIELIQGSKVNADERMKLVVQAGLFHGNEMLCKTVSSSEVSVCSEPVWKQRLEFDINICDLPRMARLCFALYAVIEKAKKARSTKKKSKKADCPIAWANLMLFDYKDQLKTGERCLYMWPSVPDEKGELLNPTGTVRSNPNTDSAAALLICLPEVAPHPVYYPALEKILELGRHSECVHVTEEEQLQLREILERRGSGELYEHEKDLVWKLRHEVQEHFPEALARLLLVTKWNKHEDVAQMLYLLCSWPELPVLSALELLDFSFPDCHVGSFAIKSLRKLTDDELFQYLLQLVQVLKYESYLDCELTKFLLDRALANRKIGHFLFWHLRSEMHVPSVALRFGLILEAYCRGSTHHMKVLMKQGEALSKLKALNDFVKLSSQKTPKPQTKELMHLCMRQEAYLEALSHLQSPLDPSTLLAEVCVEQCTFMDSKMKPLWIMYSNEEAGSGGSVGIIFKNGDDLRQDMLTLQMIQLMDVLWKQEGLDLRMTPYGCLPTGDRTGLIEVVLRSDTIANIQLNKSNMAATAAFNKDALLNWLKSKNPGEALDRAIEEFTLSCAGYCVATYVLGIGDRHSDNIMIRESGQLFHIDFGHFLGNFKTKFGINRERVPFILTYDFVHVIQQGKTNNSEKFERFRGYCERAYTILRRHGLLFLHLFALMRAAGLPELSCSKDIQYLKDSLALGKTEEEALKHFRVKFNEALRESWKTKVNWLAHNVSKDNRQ
p110δ/p85α, sequence (P27986 whole entry partner): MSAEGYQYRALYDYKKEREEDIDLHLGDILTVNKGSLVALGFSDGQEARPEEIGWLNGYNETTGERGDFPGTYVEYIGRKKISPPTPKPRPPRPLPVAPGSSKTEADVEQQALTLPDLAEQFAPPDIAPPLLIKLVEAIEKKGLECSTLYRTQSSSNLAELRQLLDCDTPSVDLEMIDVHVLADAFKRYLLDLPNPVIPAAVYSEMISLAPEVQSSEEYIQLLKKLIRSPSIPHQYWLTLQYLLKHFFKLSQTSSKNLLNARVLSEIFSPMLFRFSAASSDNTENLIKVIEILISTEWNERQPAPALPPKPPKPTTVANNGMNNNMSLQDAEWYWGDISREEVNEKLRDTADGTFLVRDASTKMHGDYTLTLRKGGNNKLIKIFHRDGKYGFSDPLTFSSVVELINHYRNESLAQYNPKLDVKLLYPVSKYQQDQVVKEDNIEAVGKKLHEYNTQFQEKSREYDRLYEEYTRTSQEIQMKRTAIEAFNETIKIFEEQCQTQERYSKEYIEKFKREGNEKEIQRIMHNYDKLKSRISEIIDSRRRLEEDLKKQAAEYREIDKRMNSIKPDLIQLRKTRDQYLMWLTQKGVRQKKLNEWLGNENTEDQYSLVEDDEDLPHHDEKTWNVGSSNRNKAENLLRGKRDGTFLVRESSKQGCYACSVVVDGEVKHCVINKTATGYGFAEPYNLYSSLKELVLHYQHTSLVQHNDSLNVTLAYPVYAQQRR
p110α/p85α, sequence (P42336 whole entry): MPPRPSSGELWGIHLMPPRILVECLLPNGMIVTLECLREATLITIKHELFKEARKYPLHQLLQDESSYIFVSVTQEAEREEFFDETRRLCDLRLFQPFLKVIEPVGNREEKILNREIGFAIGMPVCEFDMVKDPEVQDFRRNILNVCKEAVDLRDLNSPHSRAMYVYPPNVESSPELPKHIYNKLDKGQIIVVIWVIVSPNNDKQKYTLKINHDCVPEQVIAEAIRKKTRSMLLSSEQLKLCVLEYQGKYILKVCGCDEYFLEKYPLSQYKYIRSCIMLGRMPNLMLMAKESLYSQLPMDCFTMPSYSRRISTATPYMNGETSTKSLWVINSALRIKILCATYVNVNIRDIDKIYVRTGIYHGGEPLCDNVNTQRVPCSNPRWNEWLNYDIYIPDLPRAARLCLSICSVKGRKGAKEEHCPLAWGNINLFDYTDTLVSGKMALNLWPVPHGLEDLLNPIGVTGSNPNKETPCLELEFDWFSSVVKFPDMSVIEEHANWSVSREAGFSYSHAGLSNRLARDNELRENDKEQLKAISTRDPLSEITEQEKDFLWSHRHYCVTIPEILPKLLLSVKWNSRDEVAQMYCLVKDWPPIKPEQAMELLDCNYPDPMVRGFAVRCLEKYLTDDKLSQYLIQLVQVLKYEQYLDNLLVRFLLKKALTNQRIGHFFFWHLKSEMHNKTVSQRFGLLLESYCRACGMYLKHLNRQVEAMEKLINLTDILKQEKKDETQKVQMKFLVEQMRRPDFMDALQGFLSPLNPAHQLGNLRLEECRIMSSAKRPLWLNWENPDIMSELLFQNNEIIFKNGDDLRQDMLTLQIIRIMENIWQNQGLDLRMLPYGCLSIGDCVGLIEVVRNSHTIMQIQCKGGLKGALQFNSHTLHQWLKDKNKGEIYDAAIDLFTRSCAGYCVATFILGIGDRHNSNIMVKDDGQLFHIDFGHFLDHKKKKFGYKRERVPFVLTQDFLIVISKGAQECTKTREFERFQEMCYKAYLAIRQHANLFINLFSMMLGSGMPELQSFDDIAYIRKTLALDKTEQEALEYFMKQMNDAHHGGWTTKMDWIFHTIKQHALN
p110α/p85α, sequence (P27986 whole entry partner): as the sequence (P27986 whole entry partner) above
p110β/p85α, sequence (P42338 whole entry): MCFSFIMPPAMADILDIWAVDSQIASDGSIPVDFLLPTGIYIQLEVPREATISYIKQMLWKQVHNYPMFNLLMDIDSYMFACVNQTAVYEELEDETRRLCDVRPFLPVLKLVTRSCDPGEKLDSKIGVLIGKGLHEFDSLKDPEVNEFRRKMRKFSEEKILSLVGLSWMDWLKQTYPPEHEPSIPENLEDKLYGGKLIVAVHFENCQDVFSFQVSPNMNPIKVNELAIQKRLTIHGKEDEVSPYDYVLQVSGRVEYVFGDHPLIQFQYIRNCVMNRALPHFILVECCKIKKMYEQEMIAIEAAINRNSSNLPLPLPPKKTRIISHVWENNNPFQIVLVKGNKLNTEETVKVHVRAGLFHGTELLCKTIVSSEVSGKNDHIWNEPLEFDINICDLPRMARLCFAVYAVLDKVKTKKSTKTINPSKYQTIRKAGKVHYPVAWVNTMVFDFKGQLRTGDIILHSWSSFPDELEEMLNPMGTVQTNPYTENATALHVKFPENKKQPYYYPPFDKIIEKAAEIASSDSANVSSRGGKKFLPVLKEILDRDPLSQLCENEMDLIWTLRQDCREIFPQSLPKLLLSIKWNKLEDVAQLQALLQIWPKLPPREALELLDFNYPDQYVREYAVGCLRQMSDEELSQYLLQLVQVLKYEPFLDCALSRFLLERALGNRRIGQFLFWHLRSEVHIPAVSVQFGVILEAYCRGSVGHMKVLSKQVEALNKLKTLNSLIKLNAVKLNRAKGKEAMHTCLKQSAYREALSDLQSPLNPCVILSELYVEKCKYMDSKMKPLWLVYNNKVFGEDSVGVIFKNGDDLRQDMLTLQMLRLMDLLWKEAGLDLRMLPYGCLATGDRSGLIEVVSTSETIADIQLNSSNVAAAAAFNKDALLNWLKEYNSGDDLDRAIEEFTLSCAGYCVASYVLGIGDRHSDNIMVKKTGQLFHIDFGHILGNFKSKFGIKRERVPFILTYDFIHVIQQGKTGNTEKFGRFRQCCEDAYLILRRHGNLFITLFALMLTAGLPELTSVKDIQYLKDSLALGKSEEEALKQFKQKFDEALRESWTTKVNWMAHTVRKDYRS
p110β/p85α, sequence (P27986 whole entry partner): as the sequence (P27986 whole entry partner) above
p110γ, sequence (P48736 whole entry): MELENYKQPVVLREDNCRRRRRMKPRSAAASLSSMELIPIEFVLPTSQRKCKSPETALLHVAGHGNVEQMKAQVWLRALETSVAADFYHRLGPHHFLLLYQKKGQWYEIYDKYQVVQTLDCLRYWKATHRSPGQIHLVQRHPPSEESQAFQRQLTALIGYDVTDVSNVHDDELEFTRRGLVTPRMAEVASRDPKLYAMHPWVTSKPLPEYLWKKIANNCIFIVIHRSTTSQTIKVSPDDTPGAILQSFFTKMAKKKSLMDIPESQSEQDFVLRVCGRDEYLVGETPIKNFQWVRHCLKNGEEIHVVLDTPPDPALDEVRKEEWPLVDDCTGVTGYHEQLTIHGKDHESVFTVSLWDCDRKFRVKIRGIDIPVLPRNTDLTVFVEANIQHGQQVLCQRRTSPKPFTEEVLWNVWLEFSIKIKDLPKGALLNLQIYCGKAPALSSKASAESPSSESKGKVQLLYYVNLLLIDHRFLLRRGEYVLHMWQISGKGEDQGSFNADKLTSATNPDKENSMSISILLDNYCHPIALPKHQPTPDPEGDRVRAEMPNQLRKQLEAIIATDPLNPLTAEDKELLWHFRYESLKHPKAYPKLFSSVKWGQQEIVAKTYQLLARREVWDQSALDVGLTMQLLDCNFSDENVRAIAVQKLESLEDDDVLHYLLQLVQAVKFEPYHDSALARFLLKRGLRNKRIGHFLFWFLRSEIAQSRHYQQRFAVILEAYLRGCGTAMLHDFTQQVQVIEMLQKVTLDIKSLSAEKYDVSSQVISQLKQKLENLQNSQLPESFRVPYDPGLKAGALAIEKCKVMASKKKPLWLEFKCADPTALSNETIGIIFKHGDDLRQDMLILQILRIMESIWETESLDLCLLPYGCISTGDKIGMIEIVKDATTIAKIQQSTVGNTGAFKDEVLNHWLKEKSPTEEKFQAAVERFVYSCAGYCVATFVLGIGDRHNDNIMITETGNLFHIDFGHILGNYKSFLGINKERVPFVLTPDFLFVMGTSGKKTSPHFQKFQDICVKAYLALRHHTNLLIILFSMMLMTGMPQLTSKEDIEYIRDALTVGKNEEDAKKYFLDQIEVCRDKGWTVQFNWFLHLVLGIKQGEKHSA

pIC50 ([1]; read-out: PI3K δ IC50)	pIC50 ([2]; read-out: PI3K β IC50)	pIC50 ([3]; read-out: PI3K γ IC50)	pIC50 ([4]; read-out: PI3K α IC50)	Structure (SMILES)	other results
> 6.00	> 6.00	> 6.00	> 7.00	Nc1nsc2cc(-c3ccc4nccc(-c5ccncc5)c4c3)ccc12 [compound 13]	
> 6.00	> 6.00	> 7.00	> 7.00	Nc1nc2cccc(-c3ccc4nccc(-c5ccncc5)c4c3)c2s1 [compound 17]	
> 7.00	> 7.00		> 7.00	Nc1nc2cc(-c3ccc4nccc(-c5cn[nH]c5)c4c3)ccc2o1 [compound 20]	
> 5.00	> 5.00	> 5.00	> 6.00	CN1CCN(c2ccnc3ccc(-c4ccc5oc(N)nc5c4)cc23)CC1 [compound 21]	
> 5.00	> 6.00	> 7.00	> 7.00	CN1CCN(c2ncnc3ccc(-c4ccc5oc(N)nc5c4)cc23)CC1 [compound 23]	
> 7.00	> 6.00	> 7.00	> 7.00	Nc1nc2cc(-c3ccc4ncnc(NC5CCOCC5)c4c3)ccc2o1 [compound 24]	
> 7.00	> 7.00	> 7.00	> 7.00	Nc1nc2cc(-c3ccc4ncc(-c5cccnc5)n4n3)ccc2o1 [compound 58]	
> 6.00	> 7.00	> 7.00	> 7.00	Nc1nc2cc(-c3ccc4ncc(-c5cn[nH]c5)n4n3)ccc2o1 [compound 59]	
> 5.00	> 5.00	> 6.00	> 7.00	Nc1nc2cc(-c3cn4c(-c5ccncc5)cnc4cn3)ccc2o1 [compound 68]	
> 5.00	> 5.00	> 6.00	> 6.00	Nc1nc2cc(-c3cn4c(-c5cn[nH]c5)cnc4cn3)ccc2o1 [compound 69]	
> 7.00	> 7.00	> 7.00	> 7.00	Nc1nc2cc(-c3ccc4nccc(-c5ccncc5)c4c3)ccc2s1 [compound 70]	
> 6.00	> 5.00	> 7.00	> 7.00	Nc1nc2cc(-c3ccc4ncc(-c5ccncc5)nc4c3)ccc2o1 [compound 71]	
> 6.00	> 6.00	> 7.00	> 7.00	Nc1nc2cc(-c3ccc4ncc(-c5cn[nH]c5)nc4c3)ccc2o1 [compound 78]	
> 7.00	> 6.00	> 6.00	> 7.00	CN1CCC(Nc2cnc3ccc(-c4ccc5oc(N)nc5c4)cc3n2)CC1 [compound 81]	
> 7.00	> 5.00	> 7.00	> 7.00	CC(=O)N1CCC(Nc2cnc3ccc(-c4ccc5oc(N)nc5c4)cc3n2)CC1 [compound 82]	
> 7.00	> 5.00	> 7.00	> 7.00	Nc1nc2cc(-c3ccc4ncc(C(=O)NC5CCOCC5)n4c3)ccc2o1 [compound 83]	
> 7.00	> 7.00	> 7.00	> 7.00	CC(=O)N1CCN(c2cnc3ccc(-c4ccc5oc(N)nc5c4)cc3n2)CC1 [compound 85]	
> 6.00	> 6.00	> 7.00	> 7.00	CS(=O)(=O)N1CCN(c2cnc3ccc(-c4ccc5oc(N)nc5c4)cc3n2)CC1 [compound 86]	
> 7.00	> 6.00	> 7.00	> 7.00	CS(=O)(=O)N1CCC(Nc2ncnc3ccc(-c4ccc5oc(N)nc5c4)cc23)CC1 [compound 87]	
> 7.00	> 5.00	> 7.00	> 7.00	Nc1nc2cc(-c3ccc4ncnc(NC5CCN(C(=O)C6CC6)CC5)c4c3)ccc2o1 [compound 89]	
> 5.00	> 6.00	> 7.00	> 7.00	Cn1cc(-c2cnc3ccc(-c4ccc5oc(N)nc5c4)cc3n2)cn1 [compound 94]	
> 7.00	> 5.00	> 7.00	> 7.00	CS(=O)(=O)N1CCC(Nc2cnc3ccc(-c4ccc5oc(N)nc5c4)cc3n2)CC1 [compound 95]	
> 6.00	> 6.00	> 7.00	> 7.00	CC(C)(C#N)c1ccc(Nc2ncnc3ccc(-c4ccc5oc(N)nc5c4)cc23)cc1 [compound 102]	
> 7.00	> 5.00	> 7.00	> 7.00	Nc1nc2cc(-c3ccc4ncc(N[C@H]5CC[C@H](O)CC5)nc4c3)ccc2o1 [compound 128]	
> 6.00	> 6.00	> 6.00	> 6.00	CC1CN(c2cnc3ccc(-c4ccc5oc(N)nc5c4)cc3n2)CC(C)N1 (stereo not drawn) [compound 131]	

pIC50 ([1]; read-out: PI3K δ IC50)	pIC50 ([2]; read-out: PI3K β IC50)	pIC50 ([3]; read-out: PI3K γ IC50)	pIC50 ([4]; read-out: PI3K α IC50)	Structure (SMILES)	other results
> 7.00	> 6.00	> 6.00	> 7.00	CN1CC(C(=O)N2CCC(Nc3ncnc4ccc(-c5ccc6oc(N)nc6c5)cc34)CC2)C1 [compound 138]	
> 5.00	> 5.00	> 5.00	> 6.00	CC(=O)NC1CCN(C(=O)c2cnc3ccc(-c4ccc5oc(N)nc5c4)cn23)CC1 [compound 147]	
> 5.00	> 7.00	> 6.00	> 7.00	CC1CN(c2cnc3ccc(-c4ccc5oc(N)nc5c4)cc3n2)CCN1 (stereo not drawn) [compound 149]	
> 5.00	> 5.00	> 5.00	> 6.00	Nc1nc2cc(-c3ccc4ncc(C(=O)N5CCN(CC6CC6)CC5)n4c3)ccc2o1 [compound 161]	
				Nc1nc2cc(-c3ccc4ncc(N5CCN(C(=O)C6(N)CC6)CC5)nc4c3)ccc2o1 [compound 226]	pIC50 [1, 5]: > 5.00; pIC50 [3, 6]: > 5.00; pIC50 [4, 7]: > 6.00
				Nc1nc2cc(-c3ccc4ncc(N5CC(C(=O)N6CCOCC6)C5)nc4c3)ccc2o1 [compound 252]	pIC50 [1, 5]: > 5.00; pIC50 [2, 8]: > 5.00; pIC50 [3, 6]: > 5.00
				CN1CCN(C(=O)C2CN(c3cnc4ccc(-c5ccc6oc(N)nc6c5)cc4n3)C2)CC1 [compound 253]	pIC50 [1, 5]: > 5.00; pIC50 [2, 8]: > 5.00; pIC50 [3, 6]: > 5.00
				Nc1nc2cc(-c3ccc4ncn(CCCN5CCCC5)c(=O)c4c3)ccc2o1 [compound 271]	pIC50 [1, 5]: > 5.00; pIC50 [2, 8]: > 5.00; pIC50 [4, 7]: > 6.00
				Nc1nc2cc(-c3ccc4ncc(C(=O)NCCN5CCCC5)n4c3)ccc2o1 [compound 296]	pIC50 [1, 5]: > 6.00; pIC50 [2, 8]: > 5.00; pIC50 [4, 7]: > 6.00
				CC1(C)CN(c2cnc3ccc(-c4ccc5oc(N)nc5c4)cc3n2)CCN1 [compound 336]	pIC50 [1, 5]: > 5.00; pIC50 [2, 8]: > 6.00; pIC50 [4, 7]: > 6.00
				C[C@H]1CN(C2CN(c3cnc4ccc(-c5ccc6oc(N)nc6c5)cc4n3)C2)CCN1 [compound 350]	pIC50 [1, 5]: > 5.00; pIC50 [2, 8]: > 5.00; pIC50 [4, 7]: > 7.00
				Cc1c(-c2ccc3oc(N)nc3c2)ccc2ncc(N3CCN[C@@H](C)C3)nc12 [compound 374]	pIC50 [1, 5]: > 5.00; pIC50 [2, 8]: > 7.00; pIC50 [4, 7]: > 6.00
				COc1ncc(-c2ccc3ncc(C(=O)N4CCOCC4)n3c2)cc1NS(=O)(=O)c1ccccc1 [compound 420]	pIC50 ([1]; read-out: PI3K δ In Vitro IC50): > 6.00; pIC50 ([3]; read-out: PI3K γ In Vitro IC50): > 6.00; pIC50 ([4]; read-out: PI3K α In Vitro IC50): > 7.00
				O=C(c1cnc2ccc(-c3cncc(NS(=O)(=O)c4ccccc4)c3)cn12)N1CCOCC1 [compound 424]	pIC50 ([1]; read-out: PI3K δ In Vitro IC50): > 5.00; pIC50 ([3]; read-out: PI3K γ In Vitro IC50): > 6.00; pIC50 ([4]; read-out: PI3K α In Vitro IC50): > 6.00
				O=C(c1cnc2ccc(-c3cncc(NS(=O)(=O)c4ccc(F)cc4F)c3)cn12)N1CCOCC1 [compound 425]	pIC50 ([1]; read-out: PI3K δ In Vitro IC50): > 6.00; pIC50 ([3]; read-out: PI3K γ In Vitro IC50): > 7.00; pIC50 ([4]; read-out: PI3K α In Vitro IC50): > 7.00
				O=C(c1cnc2ccc(-c3cccc(NS(=O)(=O)c4ccc(F)cc4F)c3)cn12)N1CCOCC1 [compound 454]	pIC50 ([1]; read-out: PI3K δ In Vitro IC50): > 5.00; pIC50 ([3]; read-out: PI3K γ In Vitro IC50): > 5.00; pIC50 ([4]; read-out: PI3K α In Vitro IC50): > 5.00
				Nc1nc2cc(-c3ccc4ncc(C(=O)N5CC[C@@H](F)C5)n4c3)ccc2o1 [compound 475]	pIC50 ([1]; read-out: PI3K δ In Vitro IC50): > 5.00; pIC50 ([3]; read-out: PI3K γ In Vitro IC50): > 7.00; pIC50 ([4]; read-out: PI3K α In Vitro IC50): > 7.00
				Nc1nc2cc(-c3ccc4ncc(C(=O)N5CC[C@@H](n6cccn6)C5)n4c3)ccc2o1 [compound 477]	pIC50 ([1]; read-out: PI3K δ In Vitro IC50): > 5.00; pIC50 ([3]; read-out: PI3K γ In Vitro IC50): > 6.00; pIC50 ([4]; read-out: PI3K α In Vitro IC50): > 7.00
				Nc1nc2cc(-c3ccc4ncc(C(=O)N5CC(n6cccn6)C5)n4c3)ccc2o1 [compound 479]	pIC50 ([1]; read-out: PI3K δ In Vitro IC50): > 5.00; pIC50 ([3]; read-out: PI3K γ In Vitro IC50): > 6.00; pIC50 ([4]; read-out: PI3K α In Vitro IC50): > 7.00
				C[C@H]1CCCN1C(=O)c1cnc2ccc(-c3ccc4oc(N)nc4c3)cn12 [compound 482]	pIC50 ([1]; read-out: PI3K δ In Vitro IC50): > 5.00; pIC50 ([3]; read-out: PI3K γ In Vitro IC50): > 6.00; pIC50 ([4]; read-out: PI3K α In Vitro IC50): > 7.00
				O=C(c1cnc2ccc(-c3cnc4[nH]ncc4c3)cn12)N1CCOCC1 [compound 492]	pIC50 ([1]; read-out: PI3K δ In Vitro IC50): > 5.00; pIC50 ([2]; read-out: PI3K β In Vitro IC50): > 5.00; pIC50 ([3]; read-out: PI3K γ In Vitro IC50): > 5.00
				Nc1nc2cc(-c3ccc4ncc(C(=O)N5CCC(N6CCC(F)(F)C6)C5)n4c3)ccc2o1 (stereo not drawn) [compound 500]	pIC50 ([1]; read-out: PI3K δ In Vitro IC50): > 5.00; pIC50 ([3]; read-out: PI3K γ In Vitro IC50): > 5.00; pIC50 ([4]; read-out: PI3K α In Vitro IC50): > 6.00
				Nc1nc2cc(-c3ccc4ncc(C(=O)N5CC(N6CCC(F)(F)C6)C5)n4c3)ccc2o1 [compound 502]	pIC50 ([1]; read-out: PI3K δ In Vitro IC50): > 5.00; pIC50 ([3]; read-out: PI3K γ In Vitro IC50): > 6.00; pIC50 ([4]; read-out: PI3K α In Vitro IC50): > 7.00
				COc1ncc(-c2ccc3ncc(C(=O)N4CCOCC4)n3c2)c2cn[nH]c12 [compound 517]	pIC50 ([1]; read-out: PI3K δ In Vitro IC50): > 5.00; pIC50 ([3]; read-out: PI3K γ In Vitro IC50): > 5.00; pIC50 ([4]; read-out: PI3K α In Vitro IC50): > 6.00

Structure (SMILES)	pIC50 ([1]; read-out: PI3K δ IC50)	pIC50 ([2]; read-out: PI3K β IC50)	pIC50 ([3]; read-out: PI3K γ IC50)	pIC50 ([4]; read-out: PI3K α IC50)	other results
CN1CCC(N(C)c2cnc3ccc(-c4ccc5oc(N)nc5c4)cc3n2)CC1 [compound 151]	> 6.00	> 5.00	> 5.00	> 7.00	
CN1CCC(N(C)c2ncnc3ccc(-c4ccc5oc(N)nc5c4)cc23)CC1 [compound 155]	> 6.00	> 7.00	> 7.00	> 7.00	
